Measurements as given in US12227500B2, “Substituted pyrrolo[2,3-b]pyridines for suppressing toxic endoplasmic reticulum stress” (THE TRUSTEES OF COLUMBIA UNIVERSITY IN THE CITY OF NEW YORK, priority 2018, dated 2025).
Where two headings read alike, the source gives them in different places.

How the values were obtained:
Test in all cases: Radiolabeled ATP kinase assay, panel of 371 kinases (Table S6)
Assay type in all cases: biochemical
[1] = biological target: T1, panel of 371 human kinases (Homo sapiens, UniProt O00444); details: PLK4/SAK; 0.1 μM; 10 μM ATP; read-out: % Enzyme Activity (relative to DMSO controls)
T1 construct: purchased Reaction Biology Corp
Description: (§1) ; FIG. 38C). […]. Further targeted analyses, such as genetic knock-down or knock-out, may be warranted to parse the role of these additional kinases in our model of neurodegeneration.

[2] = biological target: T2, panel of 371 human kinases (Homo sapiens, UniProt O94921); details: CDK14/cyclin Y (PFTK1); 0.1 μM; 10 μM ATP; read-out: % Enzyme Activity (relative to DMSO controls)
T2 construct: purchased Reaction Biology Corp
Description: as §1

[3] = biological target: T3, panel of 371 human kinases (Homo sapiens, UniProt O96017); details: CHK2; 0.1 μM; 10 μM ATP; read-out: % Enzyme Activity (relative to DMSO controls)
T3 construct: purchased Reaction Biology Corp
Description: as §1

[4] = biological target: T4, panel of 371 human kinases (Homo sapiens, UniProt P04049); details: RAF1; 0.1 μM; 10 μM ATP; read-out: % Enzyme Activity (relative to DMSO controls)
T4 construct: purchased Reaction Biology Corp
Description: as §1

[5] = biological target: T5, panel of 371 human kinases (Homo sapiens, UniProt P05771); details: PKCb1; 0.1 μM; 10 μM ATP; read-out: % Enzyme Activity (relative to DMSO controls)
T5 construct: purchased Reaction Biology Corp
Description: as §1

[6] = biological target: T6, panel of 371 human kinases (Homo sapiens, UniProt P09769); details: FGR; 0.1 μM; 10 μM ATP; read-out: % Enzyme Activity (relative to DMSO controls)
T6 construct: purchased Reaction Biology Corp
Description: as §1

[7] = biological target: T7, panel of 371 human kinases (Homo sapiens, UniProt P11309); details: PIM1; 0.1 μM; 10 μM ATP; read-out: % Enzyme Activity (relative to DMSO controls)
T7 construct: purchased Reaction Biology Corp
Description: as §1

[8] = biological target: T8, panel of 371 human kinases (Homo sapiens, UniProt P11802); details: 0.1 μM, 10 μM ATP, read-out: % Enzyme Activity (relative to DMSO controls)
T8 construct: purchased Reaction Biology Corp
Description: as §1

[9] = biological target: T9, panel of 371 human kinases (Homo sapiens, UniProt P36507); details: MEK2; 0.1 μM; 10 μM ATP; read-out: % Enzyme Activity (relative to DMSO controls)
T9 construct: purchased Reaction Biology Corp
Description: as §1

[10] = biological target: T10, panel of 371 human kinases (Homo sapiens, UniProt P49841); details: GSK3b; 0.1 μM; 10 μM ATP; read-out: % Enzyme Activity (relative to DMSO controls)
T10 construct: purchased Reaction Biology Corp
Description: as §1

[11] = biological target: T11, panel of 371 human kinases (Homo sapiens, UniProt Q02750); details: MEK1; 0.1 μM; 10 μM ATP; read-out: % Enzyme Activity (relative to DMSO controls)
T11 construct: purchased Reaction Biology Corp
Description: as §1

[12] = biological target: T12, panel of 371 human kinases (Homo sapiens, UniProt Q14012); details: CAMK1a; 0.1 μM; 10 μM ATP; read-out: % Enzyme Activity (relative to DMSO controls)
T12 construct: purchased Reaction Biology Corp
Description: as §1

[13] = biological target: T13, panel of 371 human kinases (Homo sapiens, UniProt Q15759); details: P38b/MAPK11; 0.1 μM; 10 μM ATP; read-out: % Enzyme Activity (relative to DMSO controls)
T13 construct: purchased Reaction Biology Corp
Description: as §1

[14] = biological target: T14, panel of 371 human kinases (Homo sapiens, UniProt Q15831); details: LKB1; 0.1 μM; 10 μM ATP; read-out: % Enzyme Activity (relative to DMSO controls)
T14 construct: purchased Reaction Biology Corp
Description: as §1

[15] = biological target: T15, panel of 371 human kinases (Homo sapiens, UniProt Q5TCY1); details: TTBK1; 0.1 μM; 10 μM ATP; read-out: % Enzyme Activity (relative to DMSO controls)
T15 construct: purchased Reaction Biology Corp
Description: as §1

[16] = biological target: T16, panel of 371 human kinases (Homo sapiens, UniProt Q6PHR2); details: ULK3; 0.1 μM; 10 μM ATP; read-out: % Enzyme Activity (relative to DMSO controls)
T16 construct: purchased Reaction Biology Corp
Description: as §1

[17] = biological target: T17, panel of 371 human kinases (Homo sapiens, UniProt Q86V86); details: PIM3; 0.1 μM; 10 μM ATP; read-out: % Enzyme Activity (relative to DMSO controls)
T17 construct: purchased Reaction Biology Corp
Description: as §1

[18] = biological target: T18, panel of 371 human kinases (Homo sapiens, UniProt Q8N5S9); details: CAMKK1; 0.1 μM; 10 μM ATP; read-out: % Enzyme Activity (relative to DMSO controls)
T18 construct: purchased Reaction Biology Corp
Description: as §1

[19] = biological target: T19, panel of 371 human kinases (Homo sapiens, UniProt Q8WTQ7); details: GRK7; 0.1 μM; 10 μM ATP; read-out: % Enzyme Activity (relative to DMSO controls)
T19 construct: purchased Reaction Biology Corp
Description: as §1

[20] = biological target: T20, panel of 371 human kinases (Homo sapiens, UniProt Q9BYP7); details: WNK3; 0.1 μM; 10 μM ATP; read-out: % Enzyme Activity (relative to DMSO controls)
T20 construct: purchased Reaction Biology Corp
Description: as §1

[21] = biological target: T21, panel of 371 human kinases (Homo sapiens, UniProt Q9UF33); details: EPHA6; 0.1 μM; 10 μM ATP; read-out: % Enzyme Activity (relative to DMSO controls)
T21 construct: purchased Reaction Biology Corp
Description: as §1

[22] = biological target: T22, panel of 371 human kinases (Homo sapiens, UniProt Q9UHD2); details: TBK1; 0.1 μM; 10 μM ATP; read-out: % Enzyme Activity (relative to DMSO controls)
T22 construct: purchased Reaction Biology Corp
Description: as §1

[23] = biological target: T23, panel of 371 human kinases (Homo sapiens, UniProt Q9UK32); details: RSK4; 0.1 μM; 10 μM ATP; read-out: % Enzyme Activity (relative to DMSO controls)
T23 construct: purchased Reaction Biology Corp
Description: as §1

[24] = biological target: T24, panel of 371 human kinases (Homo sapiens, UniProt Q9UQM7); details: CAMK2a; 0.1 μM; 10 μM ATP; read-out: % Enzyme Activity (relative to DMSO controls)
T24 construct: purchased Reaction Biology Corp
Description: as §1

T8 sequence (P11802 whole entry): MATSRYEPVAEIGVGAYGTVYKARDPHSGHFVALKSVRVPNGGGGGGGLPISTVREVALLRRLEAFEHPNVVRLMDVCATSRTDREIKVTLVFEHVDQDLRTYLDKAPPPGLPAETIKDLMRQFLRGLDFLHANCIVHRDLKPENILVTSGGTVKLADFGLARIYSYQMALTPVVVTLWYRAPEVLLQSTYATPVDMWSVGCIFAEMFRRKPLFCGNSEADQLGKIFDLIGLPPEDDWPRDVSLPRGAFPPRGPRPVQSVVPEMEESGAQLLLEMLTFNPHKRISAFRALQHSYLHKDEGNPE
T14 sequence (Q15831 whole entry): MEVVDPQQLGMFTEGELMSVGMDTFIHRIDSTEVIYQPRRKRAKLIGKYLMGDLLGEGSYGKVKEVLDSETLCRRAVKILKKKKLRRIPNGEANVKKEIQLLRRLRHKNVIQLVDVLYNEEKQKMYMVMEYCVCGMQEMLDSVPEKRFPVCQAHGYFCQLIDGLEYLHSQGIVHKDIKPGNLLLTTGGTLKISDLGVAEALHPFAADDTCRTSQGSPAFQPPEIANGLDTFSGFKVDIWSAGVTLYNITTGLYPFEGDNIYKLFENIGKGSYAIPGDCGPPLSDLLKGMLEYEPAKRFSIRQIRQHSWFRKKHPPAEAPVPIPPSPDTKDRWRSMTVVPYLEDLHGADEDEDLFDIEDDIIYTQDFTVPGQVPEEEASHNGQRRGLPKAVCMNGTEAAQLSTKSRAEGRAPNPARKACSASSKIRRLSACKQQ
T10 sequence (P49841 whole entry): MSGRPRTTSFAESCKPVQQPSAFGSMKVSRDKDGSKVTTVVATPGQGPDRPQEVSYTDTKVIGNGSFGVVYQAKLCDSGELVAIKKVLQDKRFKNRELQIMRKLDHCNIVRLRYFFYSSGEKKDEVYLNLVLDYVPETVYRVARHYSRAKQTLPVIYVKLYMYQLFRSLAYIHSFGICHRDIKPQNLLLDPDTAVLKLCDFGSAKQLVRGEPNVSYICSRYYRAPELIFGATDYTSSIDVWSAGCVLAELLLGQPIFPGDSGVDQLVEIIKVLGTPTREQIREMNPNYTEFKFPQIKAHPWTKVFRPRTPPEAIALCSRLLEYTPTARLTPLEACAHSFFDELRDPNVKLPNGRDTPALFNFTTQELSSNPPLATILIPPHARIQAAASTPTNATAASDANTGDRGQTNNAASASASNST
T5 sequence (P05771 whole entry): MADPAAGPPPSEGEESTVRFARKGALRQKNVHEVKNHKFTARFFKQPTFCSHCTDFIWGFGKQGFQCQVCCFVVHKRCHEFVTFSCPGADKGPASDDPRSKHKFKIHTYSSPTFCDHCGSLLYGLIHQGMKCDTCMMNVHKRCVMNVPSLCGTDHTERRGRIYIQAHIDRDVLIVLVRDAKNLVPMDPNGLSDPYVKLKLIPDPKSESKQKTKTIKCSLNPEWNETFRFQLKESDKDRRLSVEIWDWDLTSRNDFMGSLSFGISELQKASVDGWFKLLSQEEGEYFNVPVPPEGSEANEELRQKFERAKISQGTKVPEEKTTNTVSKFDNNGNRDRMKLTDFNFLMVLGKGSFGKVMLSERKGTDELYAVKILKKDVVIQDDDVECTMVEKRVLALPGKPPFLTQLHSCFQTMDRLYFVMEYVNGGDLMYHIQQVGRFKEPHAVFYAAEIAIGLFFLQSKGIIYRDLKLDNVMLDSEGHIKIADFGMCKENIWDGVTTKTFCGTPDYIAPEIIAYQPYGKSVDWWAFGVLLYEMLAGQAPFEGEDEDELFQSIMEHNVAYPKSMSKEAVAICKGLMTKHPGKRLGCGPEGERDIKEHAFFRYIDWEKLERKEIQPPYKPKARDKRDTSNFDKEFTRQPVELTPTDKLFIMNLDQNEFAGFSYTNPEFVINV
T2 sequence (O94921 whole entry): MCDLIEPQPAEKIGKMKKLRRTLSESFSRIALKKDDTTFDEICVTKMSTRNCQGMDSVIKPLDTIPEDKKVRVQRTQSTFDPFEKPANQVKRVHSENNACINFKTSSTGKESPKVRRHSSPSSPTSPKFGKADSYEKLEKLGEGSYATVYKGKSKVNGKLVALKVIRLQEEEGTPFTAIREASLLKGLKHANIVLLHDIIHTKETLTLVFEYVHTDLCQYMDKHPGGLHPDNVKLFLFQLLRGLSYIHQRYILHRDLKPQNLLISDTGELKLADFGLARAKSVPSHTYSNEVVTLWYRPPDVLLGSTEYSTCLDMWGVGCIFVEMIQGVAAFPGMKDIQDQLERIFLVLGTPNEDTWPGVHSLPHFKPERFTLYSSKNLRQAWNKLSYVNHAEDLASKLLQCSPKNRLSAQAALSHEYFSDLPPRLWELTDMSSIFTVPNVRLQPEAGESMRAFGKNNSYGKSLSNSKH
T20 sequence (Q9BYP7 whole entry): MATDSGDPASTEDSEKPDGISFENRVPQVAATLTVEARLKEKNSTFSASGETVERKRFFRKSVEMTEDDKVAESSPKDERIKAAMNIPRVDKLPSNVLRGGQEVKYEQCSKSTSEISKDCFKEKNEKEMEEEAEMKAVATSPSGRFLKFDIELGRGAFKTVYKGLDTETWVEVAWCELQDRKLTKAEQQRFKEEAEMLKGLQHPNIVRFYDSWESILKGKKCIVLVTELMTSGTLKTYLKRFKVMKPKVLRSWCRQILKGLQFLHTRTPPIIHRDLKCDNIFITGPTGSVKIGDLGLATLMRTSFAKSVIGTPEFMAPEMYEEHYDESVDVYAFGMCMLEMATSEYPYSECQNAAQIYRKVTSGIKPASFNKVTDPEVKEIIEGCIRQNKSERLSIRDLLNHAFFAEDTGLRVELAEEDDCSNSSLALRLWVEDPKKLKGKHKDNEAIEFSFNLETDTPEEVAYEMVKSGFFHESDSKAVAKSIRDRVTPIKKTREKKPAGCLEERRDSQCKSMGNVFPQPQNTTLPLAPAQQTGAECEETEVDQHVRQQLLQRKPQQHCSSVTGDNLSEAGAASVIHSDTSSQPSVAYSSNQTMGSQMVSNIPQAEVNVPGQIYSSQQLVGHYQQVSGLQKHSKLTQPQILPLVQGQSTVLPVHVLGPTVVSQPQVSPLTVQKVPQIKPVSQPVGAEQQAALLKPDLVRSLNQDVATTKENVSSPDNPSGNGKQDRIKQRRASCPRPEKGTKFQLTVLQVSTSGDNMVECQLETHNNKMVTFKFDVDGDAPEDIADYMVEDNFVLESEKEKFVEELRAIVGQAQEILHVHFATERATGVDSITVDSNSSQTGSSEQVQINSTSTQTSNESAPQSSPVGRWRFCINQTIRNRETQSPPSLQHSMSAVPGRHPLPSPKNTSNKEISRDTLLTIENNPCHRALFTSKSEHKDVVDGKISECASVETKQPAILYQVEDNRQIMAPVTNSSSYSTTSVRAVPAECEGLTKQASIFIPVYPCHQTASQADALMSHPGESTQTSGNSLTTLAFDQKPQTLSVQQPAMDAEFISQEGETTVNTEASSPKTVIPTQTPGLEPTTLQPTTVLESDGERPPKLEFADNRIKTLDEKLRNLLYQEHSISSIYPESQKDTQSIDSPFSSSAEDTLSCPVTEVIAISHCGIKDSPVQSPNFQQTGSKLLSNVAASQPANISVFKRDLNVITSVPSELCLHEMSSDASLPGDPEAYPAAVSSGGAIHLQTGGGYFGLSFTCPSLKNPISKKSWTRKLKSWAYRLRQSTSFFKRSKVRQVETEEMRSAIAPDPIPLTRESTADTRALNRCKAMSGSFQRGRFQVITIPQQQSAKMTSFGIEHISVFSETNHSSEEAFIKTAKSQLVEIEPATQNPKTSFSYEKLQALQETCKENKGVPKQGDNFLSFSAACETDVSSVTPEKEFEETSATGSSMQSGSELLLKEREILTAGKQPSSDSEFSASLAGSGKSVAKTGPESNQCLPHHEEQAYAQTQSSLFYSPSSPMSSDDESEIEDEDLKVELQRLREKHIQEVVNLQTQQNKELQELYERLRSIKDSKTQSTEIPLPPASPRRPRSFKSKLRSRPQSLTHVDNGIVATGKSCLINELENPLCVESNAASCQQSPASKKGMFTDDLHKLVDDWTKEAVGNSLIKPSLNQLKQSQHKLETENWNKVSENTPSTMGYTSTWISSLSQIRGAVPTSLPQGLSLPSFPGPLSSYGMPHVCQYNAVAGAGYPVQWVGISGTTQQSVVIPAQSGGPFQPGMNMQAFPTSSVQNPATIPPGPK
T9 sequence (P36507 whole entry): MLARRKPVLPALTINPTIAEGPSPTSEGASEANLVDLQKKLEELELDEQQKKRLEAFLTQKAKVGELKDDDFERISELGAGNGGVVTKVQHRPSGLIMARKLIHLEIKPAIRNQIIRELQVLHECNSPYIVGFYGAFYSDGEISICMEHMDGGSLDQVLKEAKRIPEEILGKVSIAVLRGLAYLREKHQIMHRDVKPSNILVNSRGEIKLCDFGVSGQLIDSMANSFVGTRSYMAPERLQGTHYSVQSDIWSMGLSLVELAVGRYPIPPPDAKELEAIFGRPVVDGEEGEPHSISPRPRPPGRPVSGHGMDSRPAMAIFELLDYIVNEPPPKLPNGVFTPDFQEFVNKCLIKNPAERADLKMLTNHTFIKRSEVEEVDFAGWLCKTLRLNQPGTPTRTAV
T16 sequence (Q6PHR2 whole entry): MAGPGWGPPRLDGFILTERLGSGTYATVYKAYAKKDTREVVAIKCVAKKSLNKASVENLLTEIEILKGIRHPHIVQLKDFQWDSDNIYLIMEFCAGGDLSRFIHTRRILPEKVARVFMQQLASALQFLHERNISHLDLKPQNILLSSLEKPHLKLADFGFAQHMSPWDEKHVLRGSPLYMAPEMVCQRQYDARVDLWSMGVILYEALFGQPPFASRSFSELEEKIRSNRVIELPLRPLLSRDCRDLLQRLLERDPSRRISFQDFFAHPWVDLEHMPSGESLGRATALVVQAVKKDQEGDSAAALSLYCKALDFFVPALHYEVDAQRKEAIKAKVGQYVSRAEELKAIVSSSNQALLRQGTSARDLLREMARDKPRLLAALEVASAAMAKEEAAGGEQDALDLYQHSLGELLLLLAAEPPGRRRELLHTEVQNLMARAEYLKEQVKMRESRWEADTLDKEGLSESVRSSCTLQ

Compound	remaining activity at 0.1 µM [1] [%]	remaining activity at 0.1 µM [2] [%]	remaining activity at 0.1 µM [3] [%]	remaining activity at 0.1 µM [4] [%]	remaining activity at 0.1 µM [5] [%]	remaining activity at 0.1 µM [6] [%]	remaining activity at 0.1 µM [7] [%]	remaining activity at 0.1 µM ([8]; CDK4/cyclin D1) [%]	remaining activity at 0.1 µM ([8]; CDK4/cyclin D3) [%]	remaining activity at 0.1 µM [9] [%]	remaining activity at 0.1 µM [10] [%]	remaining activity at 0.1 µM [11] [%]	remaining activity at 0.1 µM [12] [%]	remaining activity at 0.1 µM [13] [%]	remaining activity at 0.1 µM [14] [%]	remaining activity at 0.1 µM [15] [%]	remaining activity at 0.1 µM [16] [%]	remaining activity at 0.1 µM [17] [%]	remaining activity at 0.1 µM [18] [%]	remaining activity at 0.1 µM [19] [%]	other results
CN1CCN(Cc2ccc(-c3cnc4[nH]cc(-c5ccc6[nH]ccc6c5)c4c3)cc2)CC1 [Compound 1, 3-(1H-Indol-5-yl)-5-(4-((4-methylpiperazin-1-yl)methyl)phenyl)-1H-pyrrolo[2,3-b]pyridine, reference compound]	97	110	85.2	104	78.3	97.2	93.2	69.2	90.9	86.7	99	111	100	87.4	101	111	70	92.9	103	101	remaining activity at 0.1 µM [20]: 93.7%; remaining activity at 0.1 µM [21]: 106%; remaining activity at 0.1 µM [22]: 82.8%; remaining activity at 0.1 µM [23]: 83.5%; remaining activity at 0.1 µM [24]: 101%
OCCN1CCN(Cc2ccc(-c3cnc4[nH]cc(-c5cccc(Cl)c5)c4c3)cc2)CC1 [Compound 12k, 2-(4-(4-(3-(3-Chlorophenyl)-1H-pyrrolo[2,3-b]pyridin-5-yl)benzyl)piperazin-1-yl)ethan-1-ol]	93.4	94.9	93.5	105	86.2	84.2	98.5	56.4	67.2	93.1	89.6	92.7	121	94.2	78.7	106	41.5	106	102	97.1	remaining activity at 0.1 µM [20]: 82.2%; remaining activity at 0.1 µM [21]: 98.2%; remaining activity at 0.1 µM [22]: 75.2%; remaining activity at 0.1 µM [23]: 41.2%; remaining activity at 0.1 µM [24]: 110%
